Where a SMILES comes first, the peptide text is derived from it. Bridges are numbered along the chain shown (N, C = ends).
Columns and labels:
healthy men [1] = test: Plasma growth hormone during LEAP2 infusion, crossover study; assay type: in vivo, human; conditions: mean ± SEM
Excerpt: (§1) The infusion was terminated when participants had finished eating.
For analysis of plasma glucose, blood was distributed in fluoride heparin-coated tubes, centrifuged immediately for 30 s (12,100 g, room temperature) and measured bedside by the glucose oxidase method (YSI 2900 Biochemistry Analyzer; YSI Incorporated, Yellow Springs, Ohio, USA). For analysis of LEAP2, blood was collected in chilled K3EDTA tubes each containing 250 KIU of aprotinin. For analysis of acyl ghrelin, blood was collected in chilled K2EDTA tubes added 20 μL pefabloc (100 mg/mL; Merck Millipore, Burlington, Massachusetts, USA). Subsequently, pefabloc-treated plasma was acidified with HCl (12.5 μL 2M HCl per 500 μL plasma; Merck Millipore, Burlington, Massachusetts, USA). For analysis of glucagon, blood was collected in K2EDTA tubes. For analysis of GH, insulin, C-peptide, free fatty acids, glycerol, triglycerides and acetaminophen (paracetamol), blood was collected in tubes with lithium and heparin. All tubes were immediately cooled on ice, centrifuged for 15 min (2,000 g, 4°C) and stored at −80°C until analysis. LEAP2 concentrations were determined by an in-house radioimmunoassay directed against the N-terminal part of LEAP2. LEAP-2 was used for standards, and the tracer was a peptide composed of the 12 N-terminal amino acids of LEAP2, with a ^125I-labelled tyrosine added to the C-terminal end. The precision and accuracy of the assay were evaluated based on European Medicines Agency's guidelines for bioanalytical assay validation. […] Due to supply chain disruptions from the COVID-19 pandemic, acyl ghrelin was only measured in plasma samples at timepoints 0, 60, 105, 165 and 255 min. […] Plasma GH was measured by Immunodiagnostic system-iSYS assay (IS-3700; IDS Limited, Boldon, UK). The assay is based on chemiluminesence technology and was performed according to the manufacturer’|'s instructions. […] For analysis of glucagon, plasma was extracted in a final concentration of 70% ethanol. Glucagon was measured using a C-terminal directed antiserum (code number 4305) measuring glucagon of pancreatic origin as previously described.[40] […] Plasma insulin and C-peptide were measured using a two-sided electrochemiluminescence immunoassay (Atellica IM Analyzer; Siemens Healthcare, Ballerup, Denmark). Plasma triglycerides and acetaminophen were analyzed by spectrophotometric methods following enzymatic hydrolysis and oxidation (Siemens Atellica CH 930; Siemens Healthcare, Ballerup, Denmark). Plasma concentrations of free fatty acids and glycerol were determined by enzymatic methods modified to run on a COBAS 6000 automatic analyzer (Roche, Rødovre, Denmark) using a NEFA-HR assay (Wako Chemicals, Neuss, Germany) and glycerol assay (Randox Laboratories, Crumlin, UK), respectively.
Unless otherwise stated, results are presented as mean ± SEM. Baseline values were calculated as a mean of timepoints −35, −10 and 0 min or, when only available −10 and 0 min. Baseline values for the postprandial period were calculated as a mean of timepoint 60 min. Calculations of AUC were based on the trapezoidal rule. AUC values are reported for the period 0 to 255 min. To assess the fasting and postprandial periods separately, AUC values are reported for the periods 0 to 60 min and 60 to 255 min, respectively. Student’s paired t test was used to test for differences in baseline, peak, time to peak, AUC and mean values and ad libitum food intake in men.

healthy men [2] = test: Plasma acetaminophen as indirect marker of gastric emptying, crossover study; assay type: in vivo, human; conditions: healthy men n = 20, iv LEAP2 ~25 pmol/kg/min
Excerpt: as §1
For analysis of plasma glucose, blood was distributed in fluoride heparin-coated tubes, centrifuged immediately for 30 s (12,100 g, room temperature) and measured bedside by the glucose oxidase method (YSI 2900 Biochemistry Analyzer; YSI Incorporated, Yellow Springs, Ohio, USA). For analysis of LEAP2, blood was collected in chilled K3EDTA tubes each containing 250 KIU of aprotinin. For analysis of acyl ghrelin, blood was collected in chilled K2EDTA tubes added 20 μL pefabloc (100 mg/mL; Merck Millipore, Burlington, Massachusetts, USA). Subsequently, pefabloc-treated plasma was acidified with HCl (12.5 μL 2M HCl per 500 μL plasma; Merck Millipore, Burlington, Massachusetts, USA). For analysis of glucagon, blood was collected in K2EDTA tubes. For analysis of GH, insulin, C-peptide, free fatty acids, glycerol, triglycerides and acetaminophen (paracetamol), blood was collected in tubes with lithium and heparin. All tubes were immediately cooled on ice, centrifuged for 15 min (2,000 g, 4°C) and stored at −80°C until analysis. LEAP2 concentrations were determined by an in-house radioimmunoassay directed against the N-terminal part of LEAP2. […] The precision and accuracy of the assay were evaluated based on European Medicines Agency's guidelines for bioanalytical assay validation. […] Due to supply chain disruptions from the COVID-19 pandemic, acyl ghrelin was only measured in plasma samples at timepoints 0, 60, 105, 165 and 255 min. […] Plasma GH was measured by Immunodiagnostic system-iSYS assay (IS-3700; IDS Limited, Boldon, UK). […] Glucagon was measured using a C-terminal directed antiserum (code number 4305) measuring glucagon of pancreatic origin as previously described.[40] […] Plasma insulin and C-peptide were measured using a two-sided electrochemiluminescence immunoassay (Atellica IM Analyzer; Siemens Healthcare, Ballerup, Denmark). Plasma triglycerides and acetaminophen were analyzed by spectrophotometric methods following enzymatic hydrolysis and oxidation (Siemens Atellica CH 930; Siemens Healthcare, Ballerup, Denmark). […]

healthy men [3] = test: Plasma glucose and VAS ratings during the pharmacokinetic study; assay type: in vivo, human
Description: Eight healthy men, recruited among participants in the placebo-controlled, crossover study, were included in an additional clinical study investigating the kinetic parameters of exogenous LEAP2. Each participant underwent a single experimental day with intravenous infusion of LEAP2 (10 min at a rate of ∼101 pmol/kg/min followed by 110 min at ∼25 pmol/kg/min) (see Figure S1B for an overview of the clinical study design). […] Fasting schedule for participants and all instructions from 48 h prior to the experimental day were similar to the placebo-controlled, crossover study. […] LEAP2 infusion was started at timepoint 0 min and discontinued after 120 min. Blood samples were drawn every 15 min from timepoint −30 to 270 min and, additionally, at timepoints 118, 122, 124, 127 and 130 min. Plasma glucose was measured bedside every 15 min from timepoint −30 to 180 min and every 30 min from timepoint 180 to 270 min with a mean concentration of 4.85 ± 0.02 mmol/L. For analytical procedures related to plasma glucose and LEAP2 concentrations, please see the section “Human plasma analyses”. Every 30 min from time −30 to 270 min, participants rated appetite-related sensations on 100 mm VAS[34] with a score (median (interquartile range)) for hunger of 72 (59–79) mm, prospective food consumption 73 (65–82) mm, satiety 22 (14–33) mm, fullness 21 (12–31) mm, comfort 78 (72–90) mm, thirst 78 (71–89) mm and nausea 3.0 (0–9.0).

wild-type mice = test: Fasting insulin and plasma glucose after subcutaneous LEAP2 in fasted wild-type mice; assay type: in vivo, mouse; conditions: fasted female wild-type mice, LEAP2 3 μmol/kg subcutaneous
Description: For fasting insulin and glucose concentrations, females (15 weeks of age) were used. Mice were housed four mice per cage. On the experimental day, mice were fasted from four hours before subcutaneous administration until end of the study and randomized by body weight into either vehicle (saline) or LEAP2 dosing (3 μmol/kg). Blood samples were collected at timepoints −60, 20 and 60 min from the retro-orbital vein plexus using EDTA-coated capillary tubes. Plasma was subsequently separated from the blood after centrifugation (3,000 g, 4°C, 5 min) and stored at −80°C until analysis. Blood glucose was measured at timepoints −60, 20 and 60 min from eye blood and at timepoint 0 min from a tail puncture by use of the same glucometer (Contour ™xt meter; Ascensia Diabetes Care, Basel, Switzerland). Mouse plasma insulin concentrations were determined by use of a Mouse/Rat Insulin Kit (cat: K152BZC-1; Meso Scale Discovery, Gaithersburg, Maryland, USA). The assay was performed according to the manufacturer’s instructions, and the plate was measured by use of MESO QuickPlex SQ 120.

[4] = healthy men n = 20, iv LEAP2 ~25 pmol/kg/min, liquid mixed meal at 65 min
[5] = 1.5 g acetaminophen in liquid mixed meal at 65 min, marker of gastric emptying, mean ± SEM
[6] = healthy fasting men n = 8, -30 to 270 min, median (interquartile range)

CC[C@H](C)[C@@H]1NC(=O)[C@@H]2CSSC[C@@H](C(=O)N[C@@H](CO)C(=O)N[C@@H](CC(C)C)C(=O)N[C@@H](CO)C(=O)N[C@H](C(=O)N[C@@H](C)C(=O)N[C@@H](CCC(N)=O)C(=O)N[C@@H](CCC(=O)O)C(=O)O)C(C)C)NC(=O)[C@H](CCCNC(=N)N)NC(=O)[C@H](CCCNC(=N)N)NC(=O)[C@H](CCCCN)NC(=O)[C@H](CCCNC(=N)N)NC(=O)[C@H](CSSC[C@H](NC(=O)[C@H](CO)NC(=O)[C@H](C)NC(=O)CNC(=O)[C@@H](NC(=O)[C@@H]3CCCN3C(=O)[C@H](CCCNC(=N)N)NC(=O)[C@H](CC(C)C)NC(=O)[C@H](CO)NC(=O)[C@@H](NC(=O)CNC(=O)[C@H](CCCNC(=N)N)NC(=O)[C@H](Cc3c[nH]c4ccccc34)NC(=O)[C@H](Cc3ccccc3)NC(=O)[C@@H]3CCCN3C(=O)[C@@H](NC(=O)[C@@H](N)CCSC)[C@@H](C)O)C(C)C)[C@@H](C)CC)C(=O)N[C@@H](CCCNC(=N)N)C(=O)N[C@@H](CC(=O)O)C(=O)N[C@@H](CC(=O)O)C(=O)N[C@@H](CO)C(=O)N[C@@H](CCC(=O)O)C(=O)N2)NC(=O)[C@H](CC(C)C)NC(=O)[C@H](CCCNC(=N)N)NC(=O)[C@H]([C@@H](C)O)NC1=O [LEAP2, liver-expressed antimicrobial peptide 2] (H-MTPFWRGVSLRPIGASCRDDSECITRLCRKRRCSLSVAQE-OH; disulfide 17-28, 23-33 (inferred); N-terminus and C-terminus assumed)
Growth hormone Baseline (healthy men [1]; healthy men n = 20, LEAP2 day, before infusion): 0.594 ± 0.300 ng/mL | Growth hormone AUC (healthy men [1]; healthy men n = 20, iv LEAP2 ~25 pmol/kg/min, 0 to 255 min): 33.8 ± 11.8 ng·min/mL | Growth hormone AUC0–60 min (healthy men [1]; healthy men n = 20, iv LEAP2 ~25 pmol/kg/min, fasting period): 20.2 ± 9.76 ng·min/mL | Growth hormone Nadir (healthy men [1]; [4]): 0.042 ± 0.004 ng/mL | Growth hormone Time to nadir (healthy men [1]; [4]): 116 ± 17.2 min | Growth hormone AUC60–255 min (healthy men [1]; healthy men n = 20, iv LEAP2 ~25 pmol/kg/min, postprandial period): 13.6 ± 2.32 ng·min/mL | Growth hormone Postprandial baseline (healthy men [1]; healthy men n = 20, iv LEAP2 ~25 pmol/kg/min, time = 60 min): 0.121 ± 0.048 ng/mL | Acetaminophen Peak (healthy men [2]; [5]): 65.1 ± 2.52 µmol/L | Acetaminophen Time to peak (healthy men [2]; [5]): 209 ± 6.34 min | gastric emptying rate of a liquid mixed meal (healthy men [2]; by plasma acetaminophen, vs placebo): does not alter gastric emptying rate | plasma glucose mean concentration during the pharmacokinetic study (healthy men [3]; healthy fasting men n = 8, -30 to 270 min, LEAP2 infusion 0 to 120 min): 4.85 ± 0.02 mmol/L | VAS comfort (healthy men [3]; [6]): 78 (72–90) mm | VAS fullness (healthy men [3]; [6]): 21 (12–31) mm | VAS prospective food consumption (healthy men [3]; [6]): 73 (65–82) mm | VAS satiety (healthy men [3]; [6]): 22 (14–33) mm | VAS thirst (healthy men [3]; [6]): 78 (71–89) mm | VAS hunger (healthy men [3]; healthy fasting men n = 8, every 30 min from -30 to 270 min, LEAP2 infusion 0 to 120 min, median (interquartile range)): 72 (59–79) mm | fasting plasma glucose concentrations vs vehicle (wild-type mice): did not affect fasting plasma glucose concentrations | fasting insulin concentrations vs vehicle (wild-type mice; 20 and 60 min): no effect
